NCC(CC(=O)O)c1ccc(Cl)cc1 (stereo not given)
solubility (mole fraction)
Conditions | in ethanol | in isopropanol | in methanol | in n-propanol | in propylene glycol
293.2 K | 3.25e-05 | 5.77e-05 | 0.000123 | 5.6e-05 | 0.000216
298.2 K | 4.17e-05 | 6.36e-05 | 0.000131 | 6.26e-05 | 0.000271
303.2 K | 4.87e-05 | 7.64e-05 | 0.00014 | 6.34e-05 | 0.000345
308.2 K | 5.39e-05 | 8.09e-05 | 0.000147 | 7.82e-05 | 0.000424
313.2 K | 6.09e-05 | 8.85e-05 | 0.000173 | 8.22e-05 | 0.000485

— BigSolDB 2.1
